One data set concerns mOTR. On the set-up: method as in PMID 30199637. To be noted: mouse receptor, cited from earlier work.
The target in data set [1] is T1, GABAA (alpha1/beta2/gamma2) (Homo sapiens, UniProt P14867+P18507+P47870).
T1 construct: Eurofins (contract assay)
Description: ion channel blockade panel. It counts as cell-based. To be noted: 5 μM. The method, then: (§1) In vitro profiling of LIT-001 was performed by Eurofins as described in the Eurofins SafetyScreen-Functional panel, 2018[31]. The hepatotoxicity of LIT-001 was studied with cryo-preserved mouse hepatocytes. After unfreezing (optiTHAW and optiINCUBATE media, Xenotech) and cell viability control, cells (2 × 10^6 cells/ml) were dispatched in 96 well microtiterplates. LIT-001 was added to reach a concentration 1 μM in the presence of 1 × 10^6 cells/mL in a volume of 100 μl/well. The incubation was stopped at 4, 20, 40, 80 and 120 min in adding 100 μl of acetonitrile at 0 °C. A positive control was treated in the same conditions. All samples were analyzed by UHPLC coupled to a mass spectrometer (Shimadzu LC-MS 8030).

In a further data set the target is T2, Vav1.5 sodium channel (Homo sapiens, UniProt Q14524).
T2 construct: Eurofins (contract assay)
The data set is described as follows: ion channel blockade panel. It counts as cell-based. To be noted: 5 μM. On the procedure: as §1

In data set [2] the target is T3, human hERG potassium channel (Homo sapiens, UniProt Q12809).
T3 construct: Eurofins (contract assay)
T3 sequence (Q12809 whole entry): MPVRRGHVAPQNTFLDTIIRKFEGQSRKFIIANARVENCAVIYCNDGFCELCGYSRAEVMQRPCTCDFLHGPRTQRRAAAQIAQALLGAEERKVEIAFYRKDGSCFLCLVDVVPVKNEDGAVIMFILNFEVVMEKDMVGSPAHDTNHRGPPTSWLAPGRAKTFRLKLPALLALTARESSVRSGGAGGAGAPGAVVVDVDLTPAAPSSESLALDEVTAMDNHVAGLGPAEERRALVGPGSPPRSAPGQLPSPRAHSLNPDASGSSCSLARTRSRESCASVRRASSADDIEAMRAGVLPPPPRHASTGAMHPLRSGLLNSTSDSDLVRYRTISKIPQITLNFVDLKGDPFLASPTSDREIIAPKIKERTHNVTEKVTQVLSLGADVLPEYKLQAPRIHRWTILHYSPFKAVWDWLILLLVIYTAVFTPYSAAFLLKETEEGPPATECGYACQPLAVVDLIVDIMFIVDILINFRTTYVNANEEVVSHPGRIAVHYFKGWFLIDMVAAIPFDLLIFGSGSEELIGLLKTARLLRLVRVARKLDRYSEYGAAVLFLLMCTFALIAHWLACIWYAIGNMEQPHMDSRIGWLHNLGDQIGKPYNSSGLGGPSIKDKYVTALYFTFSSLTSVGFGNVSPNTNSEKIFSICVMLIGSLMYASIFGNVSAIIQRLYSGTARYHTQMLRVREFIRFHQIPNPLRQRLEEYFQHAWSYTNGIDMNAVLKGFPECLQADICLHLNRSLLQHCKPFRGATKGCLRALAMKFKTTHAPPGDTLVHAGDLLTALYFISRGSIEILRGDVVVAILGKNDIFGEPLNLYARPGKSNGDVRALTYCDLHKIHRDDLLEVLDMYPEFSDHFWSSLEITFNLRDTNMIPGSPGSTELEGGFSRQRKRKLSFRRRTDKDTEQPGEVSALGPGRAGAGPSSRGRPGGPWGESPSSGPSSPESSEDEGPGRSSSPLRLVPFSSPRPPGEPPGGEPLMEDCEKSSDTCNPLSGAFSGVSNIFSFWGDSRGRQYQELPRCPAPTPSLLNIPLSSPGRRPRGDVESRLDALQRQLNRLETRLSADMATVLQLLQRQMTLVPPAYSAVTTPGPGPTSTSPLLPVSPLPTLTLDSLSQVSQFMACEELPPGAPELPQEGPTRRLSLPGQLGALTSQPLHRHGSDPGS
The data set is described as follows: ion channel blockade panel. It counts as cell-based. The note with it: 5 μM. The method, then:
as §1

In another data set the target is T4, nAChR (alpha4/beta2) (Homo sapiens, UniProt P17787+P43681).
T4 construct: Eurofins (contract assay)
T4 sequence (P43681 29-627 limits assumed): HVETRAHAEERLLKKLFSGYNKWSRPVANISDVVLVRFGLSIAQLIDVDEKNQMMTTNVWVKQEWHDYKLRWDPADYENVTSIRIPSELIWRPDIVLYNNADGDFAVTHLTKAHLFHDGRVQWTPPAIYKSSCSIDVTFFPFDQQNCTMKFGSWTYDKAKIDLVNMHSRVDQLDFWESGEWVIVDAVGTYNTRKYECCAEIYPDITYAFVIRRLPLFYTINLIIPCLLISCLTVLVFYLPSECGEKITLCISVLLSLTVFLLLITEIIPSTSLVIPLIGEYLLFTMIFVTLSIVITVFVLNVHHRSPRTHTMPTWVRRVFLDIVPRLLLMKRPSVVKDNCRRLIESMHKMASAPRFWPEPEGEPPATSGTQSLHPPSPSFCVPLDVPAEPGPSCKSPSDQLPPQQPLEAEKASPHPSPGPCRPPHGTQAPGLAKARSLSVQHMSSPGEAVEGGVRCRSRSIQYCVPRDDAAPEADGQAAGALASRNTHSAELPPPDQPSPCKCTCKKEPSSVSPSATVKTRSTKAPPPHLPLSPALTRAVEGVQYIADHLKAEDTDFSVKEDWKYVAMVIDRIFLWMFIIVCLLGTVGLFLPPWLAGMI
T4 sequence (P17787 26-502): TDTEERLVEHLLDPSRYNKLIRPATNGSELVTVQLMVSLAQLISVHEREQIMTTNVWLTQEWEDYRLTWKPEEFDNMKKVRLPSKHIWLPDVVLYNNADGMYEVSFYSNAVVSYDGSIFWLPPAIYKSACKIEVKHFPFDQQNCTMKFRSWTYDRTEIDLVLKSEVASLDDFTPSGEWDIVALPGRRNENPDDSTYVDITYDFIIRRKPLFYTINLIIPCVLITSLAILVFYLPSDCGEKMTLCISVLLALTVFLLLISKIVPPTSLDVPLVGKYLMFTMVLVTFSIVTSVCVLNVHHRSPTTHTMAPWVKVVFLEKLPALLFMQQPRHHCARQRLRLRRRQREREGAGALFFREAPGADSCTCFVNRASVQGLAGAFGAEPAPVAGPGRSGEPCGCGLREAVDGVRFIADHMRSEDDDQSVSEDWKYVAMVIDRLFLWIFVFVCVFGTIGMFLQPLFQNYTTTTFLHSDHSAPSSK
Description: ion channel blockade panel. It counts as cell-based. The note with it: 5 μM. On the procedure:
as §1

In data set [3] the test system is CFA-induced mechanical hyperalgesia. Description: mechanical sensitivity, calibrated forceps, CFA model. It counts as in vivo. To be noted: rat. On the procedure:
LIT-001 was prepared as described in Frantz et al.[20]. […] LIT-001 or vehicle were injected intraperitoneally (i.p.), in a volume of 10 ml/kg[20], 24 h after the induction of the CFA-induced painful inflammatory sensitization. To confirm the implication of the OTR we injected (i.p.) also L-368,899 (Sigma, St. Louis, MO) (1 mg/kg), an OTR antagonist, in combination with LIT-001 in another group of rats[11].
Male Wistar rats (300 g; JANVIER LABS, Le Genest St. Isle, France) were used for this study. They were housed by groups of 3 or 4 under standard conditions (room temperature, 22 °C; 12/12 h light/dark cycle) with ad libitum access to food and water and behavioral enrichment. All animals were manipulated and habituated to the tests and to the room for at least 2 weeks. All behavioral tests were done during the light period (i.e., between 7:00 and 19:00). All the procedures were performed in accordance with European committee council Direction, authorization from French Department of Agriculture and from the regional ethic committee.
In all experimentations, to test the animal mechanical sensitivity, we used a calibrated forceps (Bioseb, Chaville, France) previously developed in our laboratory (Figs. 2, 3 and S2, S3)[32]. Briefly, the habituated rat is loosely restrained with a towel masking the eyes in order to limit stress by environmental stimulations. The tips of the forceps are placed at each side of the paw and a graduate force is applied. The pressure producing a withdrawal of the paw, or in some rare cases a vocalization of the animal, corresponded to the nociceptive threshold value. This manipulation was performed three times for each hindpaw and the values were […].
In order to induce a peripheral inflammation, 100 μl of complete Freund adjuvant (CFA; Sigma, St. Louis, MO), was injected in the right hindpaw of the rat. All CFA injections were performed under light isoflurane anesthesia (3%).

Data set [4] has as its system V2 vasopressin receptor (V2R). On the set-up: method as in PMID 30199637. The note with it: cited from earlier work.
In data set [5] the target is T5, noradrenaline transporter (Rattus norvegicus, UniProt Q63380).
T5 construct: transporters from rat brain synaptosomes; tissue Eurofins (contract assay); host or cells: rat brain synaptosomes
T5 sequence (Q63380 1-617): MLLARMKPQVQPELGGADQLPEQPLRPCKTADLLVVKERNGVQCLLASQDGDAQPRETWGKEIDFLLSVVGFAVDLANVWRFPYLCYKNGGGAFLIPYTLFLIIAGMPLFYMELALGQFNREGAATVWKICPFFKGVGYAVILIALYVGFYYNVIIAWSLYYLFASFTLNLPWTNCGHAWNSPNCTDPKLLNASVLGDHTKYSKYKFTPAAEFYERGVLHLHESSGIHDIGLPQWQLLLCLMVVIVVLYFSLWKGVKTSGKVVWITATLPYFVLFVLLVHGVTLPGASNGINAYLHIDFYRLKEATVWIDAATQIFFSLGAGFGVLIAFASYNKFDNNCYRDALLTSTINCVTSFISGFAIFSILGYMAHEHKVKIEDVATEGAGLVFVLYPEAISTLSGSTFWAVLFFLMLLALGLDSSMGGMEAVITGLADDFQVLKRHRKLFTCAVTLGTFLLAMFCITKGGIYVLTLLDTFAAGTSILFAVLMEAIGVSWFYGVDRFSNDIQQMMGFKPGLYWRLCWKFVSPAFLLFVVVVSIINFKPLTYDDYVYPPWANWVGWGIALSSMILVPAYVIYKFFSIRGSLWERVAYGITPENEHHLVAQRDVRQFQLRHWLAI
The data set is described as follows: uptake inhibition, rat brain synaptosomes. It counts as biochemical. To be noted: 5 μM. On the procedure:
as §1

The target in the next data set is T6, dopamine transporter (Rattus norvegicus, UniProt P23977).
T6 construct: transporters from rat brain synaptosomes; tissue Eurofins (contract assay); host or cells: rat brain synaptosomes
T6 sequence (P23977 whole entry): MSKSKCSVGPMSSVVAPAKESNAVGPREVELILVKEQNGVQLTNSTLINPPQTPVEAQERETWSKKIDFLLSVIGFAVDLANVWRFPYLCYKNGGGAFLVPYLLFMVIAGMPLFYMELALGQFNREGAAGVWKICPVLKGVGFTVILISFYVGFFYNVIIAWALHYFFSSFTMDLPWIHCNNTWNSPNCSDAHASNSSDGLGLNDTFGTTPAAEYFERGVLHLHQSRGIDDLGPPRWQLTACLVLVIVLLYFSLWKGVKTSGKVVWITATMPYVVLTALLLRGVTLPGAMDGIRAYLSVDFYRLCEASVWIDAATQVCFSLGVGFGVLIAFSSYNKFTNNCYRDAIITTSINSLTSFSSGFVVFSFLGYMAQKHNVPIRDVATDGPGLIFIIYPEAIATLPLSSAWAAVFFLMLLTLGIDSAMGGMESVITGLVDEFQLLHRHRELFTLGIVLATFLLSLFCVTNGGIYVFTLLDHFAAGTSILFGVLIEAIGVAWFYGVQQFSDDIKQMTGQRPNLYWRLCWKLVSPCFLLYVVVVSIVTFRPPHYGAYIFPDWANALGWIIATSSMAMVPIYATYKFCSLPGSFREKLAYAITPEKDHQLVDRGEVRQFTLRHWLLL
The data set is described as follows: uptake inhibition, rat brain synaptosomes. It counts as biochemical. The note with it: 5 μM. On the procedure:
as §1

The next data set addresses T7, serotonin transporter (Rattus norvegicus, UniProt P31652).
T7 construct: transporters from rat brain synaptosomes; tissue Eurofins (contract assay); host or cells: rat brain synaptosomes
The data set is described as follows: uptake inhibition, rat brain synaptosomes. It counts as biochemical. The note with it: 5 μM. The method, then:
as §1

The target in data set [6] is T8, ionotropic TRPV1 receptor (Homo sapiens, UniProt Q8NER1).
T8 construct: Eurofins (contract assay)
T8 sequence (Q8NER1 whole entry): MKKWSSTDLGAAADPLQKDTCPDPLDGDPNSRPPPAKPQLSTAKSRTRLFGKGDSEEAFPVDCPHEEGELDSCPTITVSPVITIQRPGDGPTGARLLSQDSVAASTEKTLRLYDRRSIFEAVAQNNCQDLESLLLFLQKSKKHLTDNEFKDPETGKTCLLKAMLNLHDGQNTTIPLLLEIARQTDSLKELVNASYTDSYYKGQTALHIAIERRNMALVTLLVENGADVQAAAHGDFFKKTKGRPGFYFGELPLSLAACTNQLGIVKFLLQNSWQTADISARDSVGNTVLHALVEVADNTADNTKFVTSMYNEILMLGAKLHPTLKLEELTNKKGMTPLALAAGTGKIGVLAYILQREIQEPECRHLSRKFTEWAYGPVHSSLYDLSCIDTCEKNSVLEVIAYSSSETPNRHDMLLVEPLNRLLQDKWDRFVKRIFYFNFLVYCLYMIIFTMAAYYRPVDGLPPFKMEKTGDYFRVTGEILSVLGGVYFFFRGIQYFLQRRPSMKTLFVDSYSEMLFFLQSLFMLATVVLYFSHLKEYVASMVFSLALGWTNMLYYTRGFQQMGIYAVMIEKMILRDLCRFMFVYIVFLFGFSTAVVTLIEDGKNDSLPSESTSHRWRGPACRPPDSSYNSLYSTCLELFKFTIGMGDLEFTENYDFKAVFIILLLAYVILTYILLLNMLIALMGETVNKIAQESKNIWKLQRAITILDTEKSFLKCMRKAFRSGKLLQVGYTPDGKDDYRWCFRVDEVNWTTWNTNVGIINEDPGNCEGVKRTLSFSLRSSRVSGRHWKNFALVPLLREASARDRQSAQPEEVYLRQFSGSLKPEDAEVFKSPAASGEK
Description: Eurofins functional profiling, TRPV1 agonist/antagonist. Type of data set: cell-based. The note with it: 5 μM. On the procedure:
as §1

A short description of data set [7]: lipophilicity LogD7.4 (octanol/PBS). The note with it: experimental, octanol/PBS pH 7.4. It counts as physicochemical. On the procedure: Solubility of LIT-001 was determined from solution of about 1 mg of compound in 500 μl of PBS at pH 7.4. (Figs. 1, S1) The solution was stirred at room temperature for 24 h and centrifuged at 15.000 × g for 5 min. The supernatant was diluted with a mixture of acetonitrile and water and analyzed by HPLC with a diode detector (Gilson; Kinetex 2.6 μm C18 100 A 50 × 4.6 mm column). […] The lipophilicity (LogD7.4) of LIT-001 was measured using […] of a stock solution diluted with different concentrations of octanol and PBS to cover a LogP range from −2 to + 4.5 in a final volume of 1 ml. After stirring for 1 h at room temperature (≈ 20 °C), the samples were centrifuged and the different phases were analyzed by HPLC (Gilson; diode detector, Kinetex 2.6 μ C18 100 A 50 × 4.6 mm column).

In the next data set the test system is V1bR (hV1BR). On the set-up: method as in PMID 30199637. To be noted: cited from earlier work.
Where [8] appears, read: i.p., D1 after CFA, measured 1 hour after injection.

Entries after “also recorded” stand apart in the source; their conditions may differ.

The values below come from paper PMC7033278, “A Nonpeptide Oxytocin Receptor Agonist for a Durable Relief of Inflammatory Pain” (Scientific Reports, 2020).

T7 sequence (P31652 whole entry): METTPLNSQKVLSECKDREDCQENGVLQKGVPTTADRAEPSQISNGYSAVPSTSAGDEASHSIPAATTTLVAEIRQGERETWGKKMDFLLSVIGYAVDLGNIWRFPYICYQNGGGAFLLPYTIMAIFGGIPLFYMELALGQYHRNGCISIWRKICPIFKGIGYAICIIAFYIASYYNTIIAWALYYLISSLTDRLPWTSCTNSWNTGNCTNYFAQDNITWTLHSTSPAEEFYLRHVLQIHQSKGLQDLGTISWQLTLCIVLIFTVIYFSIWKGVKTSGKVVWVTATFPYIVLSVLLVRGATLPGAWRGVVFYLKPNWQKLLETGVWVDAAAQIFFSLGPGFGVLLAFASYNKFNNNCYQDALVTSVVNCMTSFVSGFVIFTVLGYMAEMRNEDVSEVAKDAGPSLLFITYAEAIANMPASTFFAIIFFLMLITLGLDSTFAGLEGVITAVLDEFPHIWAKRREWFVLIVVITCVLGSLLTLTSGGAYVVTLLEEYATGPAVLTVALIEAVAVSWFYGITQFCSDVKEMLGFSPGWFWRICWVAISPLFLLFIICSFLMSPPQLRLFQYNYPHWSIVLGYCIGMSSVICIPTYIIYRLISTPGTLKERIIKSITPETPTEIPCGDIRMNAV

What is called EC50 is the concentration giving half of the maximal effect. The logD is lipophilicity at a set pH, counting ionised and neutral species. Read a high logD as higher lipophilicity. As to `Cc1cc(C(=O)N2Cc3cnn(C)c3Nc3ccccc32)ccc1CNC(=O)N1CCC[C@H]1C(=S)N(C)C` [LIT-001], the 50% effective concentration (EC50) in the data set with mOTR (agonist) was 18 nM. The “Emax (mOTR)” value in the data set on mOTR (efficacy) was 95%. In addition, in [1], the “GABAA (alpha1/beta2/gamma2) channel blockade” value was “no significant blockade activity”. The “Vav1.5 sodium channel blockade” value on Vav1.5 sodium channel was “no significant blockade activity”. The “hERG potassium channel blockade” value in [2] is “no significant blockade activity”. In addition, at nAChR (alpha4/beta2), the “nAChR (alpha4/beta2) channel blockade” value is “no significant blockade activity”. For the same compound, in [3] (10 mg/kg i.p.), the “mechanical threshold, NaCl-injected hindpaw (control animals)” value was determined as 526 ± 20 g and the “mechanical threshold, hindpaw contralateral to CFA (cCFA)” value amounted to 531 ± 25 g. In data set [3] (0.1-15 mg/kg i.p., mechanical and thermal heat, 1 hour after injection), the “antinociceptive action on contralateral hindpaw” value is listed as “none of the doses tested seem to exert an antinociceptive action”. Also, the “relative-to-baseline AUC, mechanical threshold, CFA-injected hindpaw” value in [3] (i.p. LIT-001 10 mg/kg at D1 after CFA) was 152 ± 11%. Moreover, in [3] (i.p. LIT-001 10 mg/kg at D1 after CFA, 3 h post i.p.), the “mechanical threshold, CFA-injected hindpaw” value is given as 246 ± 22 g. Besides, in [3] (setting [8]), the “dose at which analgesic effect reaches a plateau, mechanical hypersensitivity” value is given as 10 mg/kg and the “dose of first analgesic action, mechanical hypersensitivity” value is recorded as 5 mg/kg. The “affinity for V2R” value in data set [4] was “low micromolar affinity”. Besides, the noradrenaline uptake blockade entry in data set [5] was “no significant uptake blockade”. Also, the dopamine uptake blockade entry at dopamine transporter is on record as “no significant uptake blockade”. Also, the serotonin uptake blockade result on serotonin transporter is given as “no significant uptake blockade”. Also, the “agonist or antagonist activity at TRPV1 receptor” value in [6] was “No significant agonist or antagonist; also recorded: neither LIT-001 nor the OT antagonist L-368,699 displayed any significant agonist or antagonist activity”. The logD in data set [7] came out at 2 ± 0.3. The “EC50 (hV1BR)” value in the data set on V1bR (hV1BR) (agonist mode) is listed as “non significant”. Also, the “agonist or antagonist effect on V1bR” value in the data set with V1bR (hV1BR) is “devoid of agonist or antagonist effect”.
